Data reported in article PMC3408453, “A Foldamer-Dendrimer Conjugate Neutralizes Synaptotoxic β-Amyloid Oligomers” (PLoS ONE, 2012).
“Also recorded” adds a separate entry of the source. Where two headings read alike, the source gives them in different places. Ends that are not written are not given here.

Legend:
[1] = system: LTP in mouse hippocampal slices impaired by Aβ(1–42) oligomers; assay: Ex vivo hippocampal slice LTP electrophysiology; assay type: cell-based
Description: We investigated whether 7 could protect against the synaptic plasticity damage caused by Aβ(1–42) oligomers by using a hippocampus slice LTP model. LTP, a correlate of learning and memory has been repeatedly shown to be impaired by Aβ(1–42) oligomers. As negative control, substance 11 was applied. The experimenters were blind to the compounds tested.
These observations indicate the significant protective effect of 7 (Figure 12D). To test the effects of valency, LTP experiments were repeated with 8 under the same conditions.
Via standard procedures, 350-µm-thick transverse hippocampal slices were prepared from the brain of 7-months-old mice (CD1, Animal Breeding Facility, University of Szeged) with a McIlwain tissue chopper (Campden Instruments, Loughborough, UK). Slices were incubated in standard artificial cerebrospinal fluid (ACSF) at ambient temperature for 60 min, during constant gassing with 95% O2–5% CO2. The ACSF contained (mM): NaCl, 130; KCl, 3.5; CaCl2, 2; MgCl2, 2; NaH2PO4, 0.96; NaHCO3, 24; and D-glucose, 10 (pH 7.4). Individual slices were transferred to a 3D-MEA chip with 60 tip-shaped and 60-μm-high electrodes spaced at 100 μm (Ayanda Biosystems, S.A., Lausanne, Switzerland). The slice was continuously perfused with oxygenated ACSF (1.5 ml min^−1 at 34 °C) containing 720 nM Aβ(1–42) oligomers and/or 950 nM ligand throughout the recording session. Data were recorded with a standard, commercially available MEA setup (Multi Channel Systems MCS GmbH, Reutlingen, Germany). The Schaffer-collateral was stimulated by injecting a biphasic current waveform (−100/+100 μs) through one selected electrode at 0.033 Hz. Care was taken to choose the stimulating electrode in the same region from one slice to the other. The peak-to-peak amplitudes of fEPSPs at the stratum pyramidale and stratum radiatum of CA1 were analyzed. After a 30-min incubation period, the threshold and the maximum of stimulation intensity for evoke responses was determined. To evoke responses, 30% of the maximal stimulation intensity was used. LTP was induced by applying a theta-burst stimulation (TBS) pattern at the maximal stimulation intensity. The TBS comprised four trains administered at 20-s intervals with 10 bursts given at 5 Hz per train and 4 pulses at 100 Hz per burst. Statistical analysis was carried out by using two-tailed Student's t-test. For representative raw data see Figure S12.

Aβ oligomers [2] = molecular target: T1, Aβ oligomers (Homo sapiens, UniProt P05067); assay: Isothermal titration calorimetry (ITC) with Aβ oligomers; assay type: binding
T1 construct: a depsipeptide derivative of Aβ(1–42) was utilized; made in house; host or cells: chemical peptide synthesis (no expression host)
Description: (§1) Binding of 7 to the Aβ oligomers was monitored by means of isothermal titration calorimetry (ITC). […] The titrations were run at 288 K in order to improve the signal to noise ratio, and just above the precipitation limit as the ITC method is sensitive to the thermal noise caused by the stirring of large particles. […] These values strongly supported tight binding between the Aβ oligomer species and 7.
Isothermal titrations were performed with a Microcal VP-ITC microcalorimeter. The binding experiments were performed in PBS pH 7.4. The buffer solution was degassed. The concentrations of the ligands and Aβ were corrected for the material content. In individual titrations, 10 μL of ligand was injected from the computer-controlled 300-μL microsyringe at intervals of 300 s into the Aβ oligomer solution dissolved in the same buffer as the ligand. The microsyringe stirring was set to 295 rpm. All measurements were made at 288 K. The Aβ concentrations in the cell were either 72 μM or 36 μM, and the concentrations of 7 were 175 μM and 222 μM respectively. The total ligand concentration was set in the syringe so that the titration stopped when the precipitation became excessive. Control experiments were performed by injecting the ligand into a cell containing buffer with no target, and the heats of dilution were subtracted from those measured in the presence of Aβ. Titrations were also performed with buffer in the syringe and Aβ oligomer sample in the cell to check for the heat response of Aβ dilution itself. The dilution heat of the Aβ oligomer samples was constant and negligible. Since the target is inherently inhomogeneous, and an a priori model of the binding events is not available,. the experimental data were fitted to the two independent site binding model by using a nonlinear least-squares procedure, with ΔHb, ΔHb', Ka, Ka' (association constants), N and N' (number of binding sites for monomer), as adjustable parameters. The exothermic peaks appearing after the fully precipitated phase was reached, were omitted from the regression.

Aβ oligomers [3] = molecular target: T1, Aβ oligomers; assay: Ligand-induced precipitation during ITC titration, followed by DLS; settings: 72 μM Aβ oligomer
Description: as §1
For DLS measurements, 500 µL Aβ(1–42) solution (c = 72 µM) was prepared in PBS, and placed in a low–volume sizing cell. Size distribution was measured at 25°C on a Malvern Zetasizer Nano ZS Instrument (Malvern Instruments Ltd. Worcestershire, UK) equipped with a He-Ne laser (633 nm) by means of Non-Invasive Back Scatter (NIBS®) technology, which involves detection of the scattered light at an angle of 173°. A titration routine was formulated consisting of 12 independent measurements with a 2-min delay after each. The calculated amount of 7 solution was added to the Aβ after every second measurement. During the titration, the molar quantity of 7 varied between 0–35 µM. For a single measurement, the correlation function and distribution of the apparent hydrodynamic diameter (dh) over the scattered intensity of the particles were determined on the basis of 14 scans. […]

[4] = 72 μM Aβ oligomer in cell, 288 K, PBS pH 7.4, read-out: KD (ITC; first binding step for 7, single stage for the others)
[5] = read-out: KD (ITC), given as bound, 72 μM Aβ oligomer, 288 K
[6] = read-out: KD (ITC; first binding step for 7, single stage for the others), 72 μM Aβ oligomer in cell, 288 K, PBS pH 7.4

Row | Compound | Tight binding to the Aβ oligomer species in ITC (in words) (Aβ oligomers [2]; 72 μM Aβ oligomer) | Kd (Aβ oligomers [2]; [4]) [nM] | N (ITC stoichiometry, number of binding sites for monomer; first or single stage) (Aβ oligomers [2]; 72 μM Aβ oligomer, 288 K) | Kd (Aβ oligomers [2]; [5]) [nM] | Kd (Aβ oligomers [2]; [6]) [nM] | also measured
1 | 11: 6 coupled to the G0-PAMAM template; negative control with Gly7 tentacles (GGGGGGGC-NH2; not fully specified (residue 8); also: coupled to tetravalent G0-PAMAM template) [Compound 11] | the curve fitting did not converge; also recorded: did not reveal any tight binding |  |  |  |  | LTP (potentiation) with Aβ(1–42) oligomers and ligand together ([1]; 720 nM Aβ(1–42) oligomers + 950 nM ligand, 180 min after LTP induction, mean ±SEM): 130±3%; LTP (potentiation) with ligand alone ([1]; 950 nM ligand, no Aβ oligomers, mean ±SEM): 200±14%
2 | N=C(N)NCCC[C@@H](CC(=O)N[C@H]1CCCC[C@@H]1C(=O)N[C@H]1CCCC[C@@H]1C(=O)N[C@@H](CC(=O)O)CC(=O)N[C@H]1CCCC[C@@H]1C(N)=O)NC(=O)[C@H]1CCCC[C@@H]1N [Compound 1] |  | 2380 ± 214 |  |  |  | Kd (Aβ oligomers [2]; 72 μM Aβ oligomer, 288 K, read-out: KD (ITC), given as bound): > 2000 nM
3 | N=C(N)NCCC[C@@H](CC(=O)N[C@H]1CCCC[C@@H]1C(=O)N[C@H]1CCCC[C@@H]1C(=O)N[C@@H](CC(=O)O)CC(=O)N[C@H]1CCCC[C@@H]1C(=O)NCC(=O)NCC(=O)N[C@@H](CSC1CC(=O)N(CCCCN2C(=O)CC(SC[C@H](NC(=O)CNC(=O)CNC(=O)[C@H]3CCCC[C@@H]3NC(=O)C[C@H](CC(=O)O)NC(=O)[C@H]3CCCC[C@@H]3NC(=O)[C@H]3CCCC[C@@H]3NC(=O)C[C@H](CCCNC(=N)N)NC(=O)[C@H]3CCCC[C@@H]3N)C(N)=O)C2=O)C1=O)C(N)=O)NC(=O)[C@H]1CCCC[C@@H]1N (stereo partly drawn) [Compound 8] |  | 721 ± 120 |  |  |  | Concentration-dependent precipitation of Aβ oligomers during titration (ITC/DLS) (Aβ oligomers [3]): Neither 8 nor 1 led to concentration-dependent precipitation; Rescue of LTP from toxic Aβ oligomers (in words) ([1]; 720 nM Aβ(1–42) oligomers + 950 nM ligand): No rescue from the toxic Aβ oligomers was observed; ΔHb (ITC; first binding step for 7, single stage for 8) (Aβ oligomers [2]; 72 μM Aβ oligomer, 288 K): 1.1 ± 0.12 kcal/mol
4 | NC(=O)[C@H](CSC1CC(=O)N(CCC(=O)NCCNC(=O)CCN(CCC(=O)NCCNC(=O)CCN2C(=O)CC(SC[C@H](NC(=O)CNC(=O)CNC(=O)[C@H]3CCCC[C@@H]3NC(=O)C[C@H](CO)NC(=O)[C@H]3CCCC[C@@H]3NC(=O)[C@H]3CCCC[C@@H]3NC(=O)C[C@H](CO)NC(=O)[C@H]3CCCC[C@@H]3N)C(N)=O)C2=O)CCN(CCC(=O)NCCNC(=O)CCN2C(=O)CC(SC[C@H](NC(=O)CNC(=O)CNC(=O)[C@H]3CCCC[C@@H]3NC(=O)C[C@H](CO)NC(=O)[C@H]3CCCC[C@@H]3NC(=O)[C@H]3CCCC[C@@H]3NC(=O)C[C@H](CO)NC(=O)[C@H]3CCCC[C@@H]3N)C(N)=O)C2=O)CCC(=O)NCCNC(=O)CCN2C(=O)CC(SC[C@H](NC(=O)CNC(=O)CNC(=O)[C@H]3CCCC[C@@H]3NC(=O)C[C@H](CO)NC(=O)[C@H]3CCCC[C@@H]3NC(=O)[C@H]3CCCC[C@@H]3NC(=O)C[C@H](CO)NC(=O)[C@H]3CCCC[C@@H]3N)C(N)=O)C2=O)C1=O)NC(=O)CNC(=O)CNC(=O)[C@H]1CCCC[C@@H]1NC(=O)C[C@H](CO)NC(=O)[C@H]1CCCC[C@@H]1NC(=O)[C@H]1CCCC[C@@H]1NC(=O)C[C@H](CO)NC(=O)[C@H]1CCCC[C@@H]1N (stereo partly drawn) [Compound 9] | did not reveal any tight binding |  | 0.03 | > 2000 | 2240 ± 198 | 
5 | N=C(N)NCCC[C@@H](CC(=O)N[C@H]1CCCC[C@@H]1C(=O)N[C@@H](CC(=O)O)CC(=O)N[C@H]1CCCC[C@@H]1C(=O)N[C@H]1CCCC[C@@H]1C(=O)NCC(=O)NCC(=O)N[C@@H](CSC1CC(=O)N(CCC(=O)NCCNC(=O)CCN(CCC(=O)NCCNC(=O)CCN2C(=O)CC(SC[C@H](NC(=O)CNC(=O)CNC(=O)[C@H]3CCCC[C@@H]3NC(=O)[C@H]3CCCC[C@@H]3NC(=O)C[C@H](CC(=O)O)NC(=O)[C@H]3CCCC[C@@H]3NC(=O)C[C@H](CCCNC(=N)N)NC(=O)[C@H]3CCCC[C@@H]3N)C(N)=O)C2=O)CCN(CCC(=O)NCCNC(=O)CCN2C(=O)CC(SC[C@H](NC(=O)CNC(=O)CNC(=O)[C@H]3CCCC[C@@H]3NC(=O)[C@H]3CCCC[C@@H]3NC(=O)C[C@H](CC(=O)O)NC(=O)[C@H]3CCCC[C@@H]3NC(=O)C[C@H](CCCNC(=N)N)NC(=O)[C@H]3CCCC[C@@H]3N)C(N)=O)C2=O)CCC(=O)NCCNC(=O)CCN2C(=O)CC(SC[C@H](NC(=O)CNC(=O)CNC(=O)[C@H]3CCCC[C@@H]3NC(=O)[C@H]3CCCC[C@@H]3NC(=O)C[C@H](CC(=O)O)NC(=O)[C@H]3CCCC[C@@H]3NC(=O)C[C@H](CCCNC(=N)N)NC(=O)[C@H]3CCCC[C@@H]3N)C(N)=O)C2=O)C1=O)C(N)=O)NC(=O)[C@H]1CCCC[C@@H]1N (stereo partly drawn) [Compound 10] | did not reveal any tight binding |  | 0.10 | > 2000 | 2750 ± 301 | 
6 | Aβ(1–42) oligomer: synaptotoxic Aβ(1–42) oligomers prepared from Ser26 depsipeptide iso-Aβ(1–42) at pH 7.4 [reference compound] |  |  |  |  |  | LTP (potentiation) with Aβ(1–42) oligomer alone ([1]; 720 nM Aβ(1–42) oligomer, untreated slices 175±5%): 128±5%
